Assays:
[1] = system: Human Ovarian Cancer Cell Line (SK-OV-3); assay: Tumor cell proliferation assay (MTT), SK-OV-3; type: cell-based; settings: for inhibition at 10 µM: concentration of 10^−5 mol/L, preliminary screening, 72 hours, read-out: Inhibition rate % SK-OV-3; for IC50: secondary screening, 48 hours
[2] = system: Human Hepatocellular Carcinoma Cell Line (HEPG2); assay: Tumor cell proliferation assay (MTT), HEPG2; type: cell-based; settings: for inhibition at 10 µM: concentration of 10^−5 mol/L, preliminary screening, 72 hours, read-out: Inhibition rate % HEPG2; for IC50: secondary screening, 48 hours
From the text: The assay used generally is the blue tetrazolium bromide (MTT) method. […] The amount of formazan can be detected by the microplate reader through the absorption value at 570 nm. The amount of formazan product generated is proportional to the number of living cells in the sample, so the OD value may reflect the number of living cells and the ability of a test drug to inhibit or kill cells. The MTT assay may be used in determining the ability of different compounds of the present invention to inhibit one or more cancer cells proliferation. Similar assays can be designed along the same lines for any cancer cell using techniques well known in the art.
The assay used generally is the blue tetrazolium bromide (MTT) method. […] Intracellular purple formazan salt crystals can be solved in DMSO and the absorption value at 570 nm is detected by the microplate reader, then the number of living cells can be detected indirectly. So MTT assay may be used to determine the ability of a compound of the present invention to inhibit cell proliferation. Similar assays can be designed along the same lines for any cancer cell using techniques well known in the art.
2.2.8 Human Hepatocellular Carcinoma Cell Line (HEPG2);
The cells of 2.2.8, 2.2.9 cultured in DMEM/High glucose medium containing 12% calf serum in the condition of 37° C., 5% CO2.
2.3.1 Cell seeding: Trypsinize the cell by 0.05% trypsin-EDTA and add RPMI 1640 medium (DMEM or 5A) containing 12% calf serum. Count the number, then dilute to 1.67×10^4/ml. Add 180 ul/well to the 96 well plate (3000 cells/well).
2.3.2 Culture: cells are incubated for 24 hours at 37° C. under 5% CO2.
2.3.3 Preliminary screening: The compounds are firstly diluted to 0.1 mol/L with DMSO, and then diluted to three concentrations of 10^−5 mol/L, 10^−6 mol/L and 10^−7 mol/L. Add 20 ul test compounds to the 96 well plate and incubate for 72 hours. Each group has three parallel wells and all experiments repeat three times. Each inhibition ratio is calculated, then an average value of three times is taken as the measured value. 2.3.4 Staining 2.3.4.1 Attached cell: add 20 ul/well MTT to the 96-well plates; incubate for 4 hours in the incubator. Pour out the culture medium in the well and add 100 ul/well DMSO. Shake the plate for 5 min. 2.3.4.2 Suspension cell: add 20 ul/well MTT to the 96-well plates; incubate for 4 hours in the incubator. Add 50 ul/well 20% SDS and incubate for overnight in the incubator. 2.3.5 Reading the plates: read the absorbance A570-A630 with the Infinite M200 microtiter plate reader. Calculate the inhibition ratio of the test compounds. 2.3.6 Secondary screening: the compounds whose inhibition ratio is greater than 50% at the concentrations of 10^−5 mol/L in the preliminary screening will be picked out for Secondary screening. Dilute these compounds to ten concentrations: 10^−5 mol/L, 0.5×10^−5 mol/L, 10^−6 mol/L, 0.8×10^−6 mol/L, 0.6×10^−6 mol/L, 0.4×10^−6 mol/L, 0.2×10^−6 mol/L, 10^−7 mol/L, 0.8×10^−7 mol/L and 0.4×10^−7 mol/L. Add 20 ul test compound solution to the 96 well plate and incubate for 48 hours. Each group has three parallel wells and all experiments repeat for three times. Read the plates and calculate the inhibition ratio according to the preliminary screening method. 2.3.7 Calculate the Inhibition Ratio of Cell Proliferation and the IC50
According to the inhibition ratio of cell proliferation at the different concentrations of the compound, inhibition ratio of 50% of the test compound is calculated through the logarithm of the concentration of the compound with the Logit [I] linear regression, and an average value of three times is taken as the measured value of a sample.

SMILES: CCN(CC)CCNC(=O)c1c(C)[nH]c2c1CCC/C2=C1/C(=O)Nc2ccc(F)cc21 [I-2, N-(2-(diethylamino)ethyl)-2-methyl-7-[1,2-dihydro-5-fluoro-2-oxo-3H-indol-(Z)-3-ylidene]-4,5,6,7-tetrahydro-1H-indole-3-carboxamide]
- inhibition at 10 µM [1]: 92.2%
- inhibition at 10 µM [2]: 64%
- IC50 [2]: 7.27 µM

SMILES: Cc1[nH]c2c(c1C(=O)NCC(O)CN1CCOCC1)CCC/C2=C1/C(=O)Nc2ccc(F)cc21 (stereo not drawn) [I-68, N-(2-hydroxy-3-morpholinopropyl)-2-methyl-7-[1,2-dihydro-5-fluoro-2-oxo-3H-indol-(Z)-3-ylidene]-4,5,6,7-tetrahydro-1H-indole-3-carboxamide]
- inhibition at 10 µM [1]: 11.1%

SMILES: Cc1[nH]c2c(c1C(=O)NCC(O)CN1CCCCC1)CCC/C2=C1/C(=O)Nc2ccc(F)cc21 (stereo not drawn) [I-74, N-(2-hydroxy-3-(piperidin-1-yl)propyl)-2-methyl-7-[1,2-dihydro-5-fluoro-2-oxo-3H-indol-(Z)-3-ylidene]-4,5,6,7-tetrahydro-1H-indole-3-carboxamide]
- inhibition at 10 µM [1]: 88.2%
- inhibition at 10 µM [2]: 84.9%
- IC50 [2]: 7.22 µM

SMILES: Cc1[nH]c2c(c1C(=O)NCCN(C)C)CCC/C2=C1/C(=O)Nc2ccc(F)cc21 [I-6, N-(2-(dimethylamino)ethyl)-2-methyl-7-[1,2-dihydro-5-fluoro-2-oxo-3H-indol-(Z)-3-ylidene]-4,5,6,7-tetrahydro-1H-indole-3-carboxamide]
- inhibition at 10 µM [1]: 32.2%

SMILES: CCN(CC)CCNC(=O)c1c(C)[nH]c2c1CCC/C2=C1/C(=O)Nc2ccc(C)cc21 [I-4, N-(2-(diethylamino)ethyl)-2-methyl-7-[1,2-dihydro-5-methyl-2-oxo-3H-indol-(Z)-3-ylidene]-4,5,6,7-tetrahydro-1H-indole-3-carboxamide]
- inhibition at 10 µM [1]: 57.1%
- IC50 [1]: 5.27 µM

SMILES: Cc1[nH]c2c(c1C(=O)NCC(O)CN1CCCCC1)CCC/C2=C1/C(=O)Nc2ccccc21 (stereo not drawn) [I-73, N-(2-hydroxy-3-(piperidin-1-yl)propyl)-2-methyl-7-[1,2-dihydro-2-oxo-3H-indol-(Z)-3-ylidene]-4,5,6,7-tetrahydro-1H-indole-3-carboxamide]
- inhibition at 10 µM [1]: 71.9%
- inhibition at 10 µM [2]: 59.3%
- IC50 [2]: 7.36 µM

SMILES: Cc1[nH]c2c(c1C(=O)N1CCN(C)CC1)CCC/C2=C1/C(=O)Nc2ccc(F)cc21 [I-14, 2-methyl-3-(4-methylpiperazine-1-carbonyl)-7-[1,2-dihydro-5-fluoro-2-oxo-3H-indol-(Z)-3-ylidene]-4,5,6,7-tetrahydro-1H-indole]
- inhibition at 10 µM [2]: 30.4%

SMILES: CCN(CC)CC(O)CNC(=O)c1c(C)[nH]c2c1CCC/C2=C1/C(=O)Nc2ccccc21 (stereo not drawn) [I-63, N-(3-(diethylamino)-2-hydroxypropyl)-2-methyl-7-[1,2-dihydro-2-oxo-3H-indol-(Z)-3-ylidene]-4,5,6,7-tetrahydro-1H-indole-3-carboxamide]
- inhibition at 10 µM [1]: 94%
- IC50 [1]: 1.35 µM
- inhibition at 10 µM [2]: 100%
- IC50 [2]: 3.15 µM

SMILES: Cc1[nH]c2c(c1C(=O)NCC(O)CN1CCCC1)CCC/C2=C1/C(=O)Nc2ccc(F)cc21 (stereo not drawn) [I-71, N-(2-hydroxy-3-(pyrrolidin-1-yl)propyl)-2-methyl-7-[1,2-dihydro-5-fluoro-2-oxo-3H-indol-(Z)-3-ylidene]-4,5,6,7-tetrahydro-1H-indole-3-carboxamide]
- inhibition at 10 µM [1]: 91.7%
- IC50 [1]: 1.54 µM

SMILES: Cc1[nH]c2c(c1C(=O)NCC(O)CN1CCN(C)CC1)CCC/C2=C1/C(=O)Nc2ccc(F)cc21 (stereo not drawn) [I-77, N-[2-hydroxy-3-(4-methylpiperazin-1-yl)propyl]-2-methyl-7-[1,2-dihydro-5-fluoro-2-oxo-3H-indol-(Z)-3-ylidene]-4,5,6,7-tetrahydro-1H-indole-3-carboxamide]
- inhibition at 10 µM [1]: 77.3%
- IC50 [1]: 6.4 µM

SMILES: Cc1[nH]c2c(c1C(=O)NCCO)CCC/C2=C1/C(=O)Nc2ccccc21 [I-8, N-(2-hydroxyethyl)-2-methyl-7-[1,2-dihydro-2-oxo-3H-indol-(Z)-3-ylidene]-4,5,6,7-tetrahydro-1H-indole-3-carboxamide]
- inhibition at 10 µM [1]: 38.1%
- inhibition at 10 µM [2]: 53.8%

SMILES: CCN(CC)CCNC(=O)c1c(C)[nH]c2c1CCC/C2=C1/C(=O)Nc2ccccc21 [I-5, N-(2-(diethylamino)ethyl)-2-methyl-7-[1,2-dihydro-2-oxo-3H-indol-(Z)-3-ylidene]-4,5,6,7-tetrahydro-1H-indole-3-carboxamide]
- inhibition at 10 µM [1]: 77.5%
- inhibition at 10 µM [2]: 64.6%
- IC50 [2]: 7.73 µM

SMILES: Cc1[nH]c2c(c1C(=O)NCCCN(C)C)CCC/C2=C1/C(=O)Nc2ccc(Cl)cc21 [I-7, N-(3-(dimethylamino)propyl)-2-methyl-7-[1,2-dihydro-5-chloro-2-oxo-3H-indol-(Z)-3-ylidene]-4,5,6,7-tetrahydro-1H-indole-3-carboxamide]
- inhibition at 10 µM [1]: 63.3%
- IC50 [1]: 3.04 µM

SMILES: Cc1[nH]c2c(c1C(=O)NCC(O)CN1CCCC1)CCC/C2=C1/C(=O)Nc2ccccc21 (stereo not drawn) [I-70, N-(2-hydroxy-3-(pyrrolidin-1-yl)propyl)-2-methyl-7-[1,2-dihydro-2-oxo-3H-indol-(Z)-3-ylidene]-4,5,6,7-tetrahydro-1H-indole-3-carboxamide]
- inhibition at 10 µM [1]: 95.6%
- IC50 [1]: 1.14 µM

SMILES: CCN(CC)CCNC(=O)c1c(C)[nH]c2c1CCC/C2=C1/C(=O)Nc2ccc(Cl)cc21 [I-3, N-(2-(diethylamino)ethyl)-2-methyl-7-[1,2-dihydro-5-chloro-2-oxo-3H-indol-(Z)-3-ylidene]-4,5,6,7-tetrahydro-1H-indole-3-carboxamide]
- inhibition at 10 µM [1]: 86.7%
- IC50 [1]: 2.99 µM
- inhibition at 10 µM [2]: 98.2%
- IC50 [2]: 3.14 µM

SMILES: Cc1[nH]c2c(c1C(=O)NCCO)CCC/C2=C1/C(=O)Nc2ccc(F)cc21 [I-9, N-(2-hydroxyethyl)-2-methyl-7-[1,2-dihydro-5-fluoro-2-oxo-3H-indol-(Z)-3-ylidene]-4,5,6,7-tetrahydro-1H-indole-3-carboxamide]
- inhibition at 10 µM [2]: 47.5%

Reference: US8084621B2, “3-Pyrrolo[b]cyclohexylene-2-dihydroindolinone derivatives and uses thereof” (Jiangsu Simcere Pharmaceutical R&D Co. Ltd., priority 2006, dated 2011)
